Reference: ChEMBL document CHEMBL1143225, “Neurosteroid analogues. 14. Alternative ring system scaffolds: GABA modulatory and anesthetic actions of cyclopenta[b]phenanthrenes and cyclopenta[b]anthracenes” (J Med Chem, 2008)
Active and inactive are the calls of the source. The calls are words filed in the database; no cut-off is given here.

Experiments:
Oocyte [1] = experiment: Activity at rat GABAA alpha-1-beta-2-gamma-2L receptor expressed in Xenopus laevis oocytes assessed as gating effect at 10 uM by electrophysiology method; type: cell-based
Oocyte [2] = experiment: Activity at rat GABAA alpha-1-beta-2-gamma-2L receptor expressed in Xenopus lavies oocytes assessed as ratio of effect on current at 1 uM drug to absence of compound by electrophysiology method; type: cell-based
Oocyte [3] = experiment: Activity at rat GABAA alpha-1-beta-2-gamma-2L receptor expressed in Xenopus lavies oocytes assessed as ratio of effect on current at 0.1 uM drug to absence of compound by electrophysiology method; type: cell-based
Xenopus laevis [4] = experiment: Anesthetic effect on Xenopus lavies tadpole assessed as loss of righting reflex; type: functional
Xenopus laevis [5] = experiment: Anesthetic effect on Xenopus lavies tadpole assessed as loss of swimming reflex at 10 uM; type: functional, organism-based
Oocyte [6] = experiment: Activity at rat GABAA alpha-1-beta-2-gamma-2L receptor expressed in Xenopus lavies oocytes assessed as ratio of effect on current at 10 uM drug to absence of compound by electrophysiology method; type: cell-based
[7] = Displacement of [35S]TBPS from GABAA receptor in rat brain membrane; type: cell membranes
HEK293 [8] = experiment: (§1) Activity at rat GABAA alpha-1Q241L/Y410F receptor mutant expressed in HEK293 cells assessed as macroscopic current amplitude by electrophysiological method; type: cell-based
[9] = as §1; type: cell-based
Xenopus laevis [10] = experiment: Anesthetic effect on Xenopus lavies tadpole assessed as loss of swimming reflex; type: functional
HEK293 [11] = experiment: (§2) Activity at rat GABAA alpha-1-beta-2-gamma-2L receptor expressed in HEK293 cells assessed as macroscopic current amplitude by electrophysiological method; type: cell-based
[12] = as §2; type: cell-based

`C[C@]12C[C@H]3CC[C@H](CCO)C[C@@H]3C[C@@H]1CC[C@@]21CO1` gave a Ratio (Oocyte [1]) of 0.03, a Ratio (Oocyte [2]) of 1.54 and a Ratio (Oocyte [3]) of 0.86. For the same compound, the ED50 (Xenopus laevis [4]) was 3460 nM, the Activity (Xenopus laevis [5]) was “inactive” and the Ratio (Oocyte [6]) was 5.37. The IC50 [7] was 1170 nM.

Work on `C[C@]12CC[C@@H](O)C[C@@H]1CC[C@@H]1[C@@H]2CC[C@]2(C)C(=O)CC[C@@H]12` [ANDROSTERONE] yielded a Ratio (Oocyte [1]) of 0.02, a Ratio (Oocyte [2]) of 1.41 and a Ratio (Oocyte [3]) of 0.97. The ED50 (Xenopus laevis [4]) was 3380 nM, the Activity (Xenopus laevis [5]) was “inactive” and the Ratio (Oocyte [6]) was 5.44. For the same compound, the IC50 [7] was 410 nM.

Work on `C[C@]12C[C@H]3CC[C@H](CCO)C[C@@H]3C[C@@H]1CCC2=O` yielded a Ratio (Oocyte [1]) of -0.02, a Ratio (Oocyte [2]) of 1 and a Ratio (Oocyte [3]) of 1. For the same compound, the ED50 (Xenopus laevis [4]) was 4010 nM, the Activity (Xenopus laevis [5]) was “inactive” and the Ratio (Oocyte [6]) was 2.42. For the same compound, the IC50 [7] was 5010 nM.

With `C[C@]12CC[C@@H](O)C[C@@H]1CC[C@@H]1[C@@H]2CC[C@@]2(C)[C@H]1CC[C@@]21CO1` the Ratio (Oocyte [1]) was 0.22, the Ratio (Oocyte [2]) was 21.9 and the Ratio (Oocyte [3]) was 3.11. For the same compound, the Activity (HEK293 [8]) was 251%, the EC50 [9] was 130 nM and the ED50 (Xenopus laevis [4]) was 1350 nM. For the same compound, the Ratio (Oocyte [6]) was 33.7, the ED50 (Xenopus laevis [10]) was 2760 nM and the IC50 [7] was 110 nM. It also gave an Activity (HEK293 [11]) of 269% and an EC50 [12] of 440 nM.

`C[C@]12CC[C@@H]3C[C@H](CCO)CC[C@H]3[C@@H]1CCC2=O` showed a Ratio (Oocyte [1]) of 0.03, a Ratio (Oocyte [2]) of 1.03 and a Ratio (Oocyte [3]) of 0.99. The ED50 (Xenopus laevis [4]) was 16400 nM, the Activity (Xenopus laevis [5]) was “inactive” and the Ratio (Oocyte [6]) was 1.05. It also gave an IC50 [7] of 4170 nM.

With `C[C@]12CC[C@@H]3C[C@H](CCO)CC[C@H]3[C@@H]1CC[C@@]21CO1` the Ratio (Oocyte [1]) was 0.04, the Ratio (Oocyte [2]) was 4.11 and the Ratio (Oocyte [3]) was 1.1. The ED50 (Xenopus laevis [4]) was 3170 nM, the Ratio (Oocyte [6]) was 20 and the ED50 (Xenopus laevis [10]) was 5480 nM. For the same compound, the IC50 [7] was 1580 nM.

In the case of `C[C@]12C[C@H]3C[C@H]4CC[C@@H](O)C[C@@H]4C[C@@H]3C[C@@H]1CC[C@@]21CO1`, the Ratio (Oocyte [1]) is reported as 0.16, the Ratio (Oocyte [2]) is reported as 10.8 and the Ratio (Oocyte [3]) is reported as 1.53. It also gave an Activity (HEK293 [8]) of 237%, an EC50 [9] of 390 nM and an ED50 (Xenopus laevis [4]) of 480 nM. For the same compound, the Ratio (Oocyte [6]) was 26.3, the ED50 (Xenopus laevis [10]) was 1730 nM and the IC50 [7] was 60 nM. It also gave an Activity (HEK293 [11]) of 294% and an EC50 [12] of 410 nM.

With `C[C@]12C[C@H]3CC[C@@H]4C[C@@H](O)CC[C@H]4[C@@H]3C[C@@H]1CC[C@@]21CO1` the Ratio (Oocyte [1]) was 0.15, the Ratio (Oocyte [2]) was 15.7 and the Ratio (Oocyte [3]) was 2.16. The Activity (HEK293 [8]) was 220%, the EC50 [9] was 130 nM and the ED50 (Xenopus laevis [4]) was 200 nM. For the same compound, the Ratio (Oocyte [6]) was 29.7, the ED50 (Xenopus laevis [10]) was 870 nM and the IC50 [7] was 40 nM. It also gave an Activity (HEK293 [11]) of 262% and an EC50 [12] of 340 nM.

With `C[C@]12C[C@H]3CC[C@@H]4C[C@@H](O)CC[C@H]4[C@@H]3C[C@@H]1CCC2=O` the Ratio (Oocyte [1]) was 0.05, the Ratio (Oocyte [2]) was 1.32 and the Ratio (Oocyte [3]) was 0.92. For the same compound, the ED50 (Xenopus laevis [4]) was 3170 nM, the Activity (Xenopus laevis [5]) was “inactive” and the Ratio (Oocyte [6]) was 6.14. The IC50 [7] was 1440 nM.

`C[C@]12C[C@H]3C[C@H]4CC[C@@H](O)C[C@@H]4C[C@@H]3C[C@@H]1CCC2=O` gave a Ratio (Oocyte [1]) of 0.28, a Ratio (Oocyte [2]) of 5.03 and a Ratio (Oocyte [3]) of 1.1. It also gave an ED50 (Xenopus laevis [4]) of 1860 nM, a Ratio (Oocyte [6]) of 28.4 and an ED50 (Xenopus laevis [10]) of 5480 nM. For the same compound, the IC50 [7] was 250 nM.
